Measured values: US7271148B2, “Inhibition of cellular proteases” (The Board of Regents of The University of Texas System, priority 1999, dated 2007)
Where a SMILES comes first, the peptide text is derived from it. The star is where a group is joined. Cbz = O=C(OCc1ccccc1)*

How the values were obtained:
[1] = tested on: p21^cip1 abundance in HCMV-infected LU cells; assay: Western blot of p21cip1 abundance in HCMV-infected, density-arrested LU cells; assay type: cell-based, human
Procedure: (§1) Cell culture and growth arrest. LU cells (3) were propagated in Eagle's minimum essential medium containing 10% fetal bovine serum and penicillin (100 units/ml)/streptomycin (100 μg/ml) in a 5% CO2 in air atmosphere. The cells were density-arrested as described previously in detail (18).
(§2) Virus stocks and productive infection. The AD169 strain of HCMV was propagated in LU cells as previously described in detail (6). The infectivity of virus stocks was determined by plaque assay (3). Virus stocks typically had infectivities between 8.0×10^6 and 4.0×10^7 plaque-forming units (PFU)/milliliter. LU cells were infected with HCMV as described in detail by Bresnahan et al. (18). Virus stocks and cell cultures were routinely examined for mycoplasma.
Western blots. Polyclonal or monoclonal antibody for p21^cip1 was obtained from Santa Cruz Biotechnology, Inc. (Santa Cruz, Calif.). Monoclonal antibodies against m-calpain, μ-calpain or calpastatin were generously provided by Dr. R. I. Mellgren (see also 75). Cells were harvested as described previously (18) by dislodging the cells with a cell lifter in phosphate buffered saline. The cells were collected by sedimentation and lysed in NP-40 lysis buffer [50 mM Tris, pH 7.4, 50 mM NaCl, 0.5% NP-40, and 1 mM NaVO3, 50 mM NaF, 1mM phenylmethylsulfonyl fluoride (PMSF), 1 mM dithiothreitol (DTT), 25 μg/ml trypsin inhibitor, 25 μg/ml aprotinin, 1 mM benzamide, and 25 μg/ml pepstatin A added just before use]. Cellular debris was removed by sedimentation and the supernatant fluids were reserved. The protein concentration was determined by the BCA protein assay (Pierce, Rockford, Ill.). Whole cell extracts (40 μg/lane) were fractionated by SDS-polyacrylamide gel electrophoresis (PAGE), and the polypeptides were transferred to nitrocellulose membranes (Bio-Rad Laboratories, Hercules, Calif.) as described previously (18). Antigen-antibody reactions were detected with the enhanced chemiluminescent assay (Amersham Pharmacia Biotech) following the manufacturer's recommendations. […]
FIGS. 9 and 10. The concentration effect of E64d on p21^cip1 abundance in HCMV-infected cells. 9: LU cells were density arrested as described in Materials and Methods. The cells were HCMV (5 PFU/cell) or mock infected, and at 48 hr PI were treated with selected concentrations of E64d. Whole cell lysates were prepared 6 hr later, and 40 μg of protein from each lysate was resolved by SDS-PAGE. The proteins were transferred to nitrocellulose and probed with antibodies to p21^cip1. Mock: mock-infected cells in the absence of drug. Control, untreated HCMV-infected cells. 0, DMSO solvent control, consisting of HCMV-infected cells treated with the same concentration of DMSO solvent (0.1%) contained in the highest concentration of E64d. 10: Represents the abundance of p21^cip1 determined by densitometric analysis of the data in FIG. 9.
FIGS. 11 and 12. The concentration effect of Z-Leu-Leu-H on p21^cip1 abundance in HCMV-infected cells. 11. LU cells were density arrested as described in Materials and Methods. The cells were HCMV (5 PFU/cell) infected, and at 48 hr PI were treated with selected concentrations of Z-Leu-Leu-H. Whole cell lysates were prepared 6 hr later, and 40 μg of protein from each lysate was resolved by SDS-PAGE. The proteins were transferred to nitrocellulose and probed with antibodies to p21^cip1. Mock, Control, and 0 are defined as in the legend to FIG. 9. 12 : Represents the abundance of p21^cip1 determined by densitometric analysis of the data in FIG. 11.
FIGS. 13 and 14. The time course for the effect of E64d on p21^cip1 abundance in HCMV-infected, density-arrested cells. 13: LU cells were density arrested, as described in Materials and Methods. The cells were HCMV (5 PFU/cell) or mock infected, and at the intervals indicated in the Fig., beginning 1 hr after infection, subsets of the cells were treated with E64d (100 μM). […]

[2] = tested on: p21^cip1 abundance in mock-infected LU cells; assay: Western blot of p21cip1 abundance in mock-infected, density-arrested LU cells; assay type: cell-based, human
Procedure: as §1, §2
Western blots. Polyclonal or monoclonal antibody for p21^cip1 was obtained from Santa Cruz Biotechnology, Inc. (Santa Cruz, Calif.). Monoclonal antibodies against m-calpain, μ-calpain or calpastatin were generously provided by Dr. R. I. Mellgren (see also 75). Cells were harvested as described previously (18) by dislodging the cells with a cell lifter in phosphate buffered saline. The cells were collected by sedimentation and lysed in NP-40 lysis buffer [50 mM Tris, pH 7.4, 50 mM NaCl, 0.5% NP-40, and 1 mM NaVO3, 50 mM NaF, 1mM phenylmethylsulfonyl fluoride (PMSF), 1 mM dithiothreitol (DTT), 25 μg/ml trypsin inhibitor, 25 μg/ml aprotinin, 1 mM benzamide, and 25 μg/ml pepstatin A added just before use]. Cellular debris was removed by sedimentation and the supernatant fluids were reserved. The protein concentration was determined by the BCA protein assay (Pierce, Rockford, Ill.). Whole cell extracts (40 μg/lane) were fractionated by SDS-polyacrylamide gel electrophoresis (PAGE), and the polypeptides were transferred to nitrocellulose membranes (Bio-Rad Laboratories, Hercules, Calif.) as described previously (18). Antigen-antibody reactions were detected with the enhanced chemiluminescent assay (Amersham Pharmacia Biotech) following the manufacturer's recommendations.
FIGS. 5 and 6. The effect of MG132, an inhibitor of proteasome degradation, on p21^cip1 abundance in HCMV- or mock-infected, density-arrested LU cells. 5. LU cells were density arrested, as described in Materials and Methods. The cell cultures were HCMV (5 PFU/cell)- or mock-infected and then exposed to selected concentrations of MG132 at 24 hr PI. Cell lysates were prepared at 30 hr PI (i.e., 6 hr after […] treatment), and 40 μg of protein from each lysate was resolved by SDS-PAGE. The proteins were transferred to nitrocellulose and probed with antibodies against p21^cip1. Control, cells cultured in the absence of MG132 or its solvent, DMSO. 0, DMSO solvent control, consisting of cells treated with the same concentration of DMSO (0.1%) present in the cultural fluids containing highest concentration of MG132 (10 μM). 6. Represents the abundance of p21^cip1 after MG132 treatment determined by densitometry of the data illustrated in FIG. 5. The data for mock-infected cells (open bars) were calculated relative to the p21^cip1 abundance in untreated mock-infected cells, while the data for HCMV-infected cells (closed bars) were determined relative to the p21^cip1 abundance in untreated HCMV-infected cells.
FIGS. 7 and 8. […]
At the times indicated in the FIG., whole cell lysates were prepared, and 40 μg of protein from each lysate was analyzed by SDS-PAGE. […]

| SMILES | p21^cip1 abundance as % of that measured in mock-infected cells ([1]; 100 μM, HCMV-infected cells treated at 48 hr PI, lysates 6 hr later) | protection of p21^cip1, concentration effect (in words) ([1]; HCMV-infected cells treated at 48 hr PI for 6 hr, selected concentrations up to 100 μM) | slope of the concentration effect on p21^cip1 abundance (linear regression analysis) ([1]; HCMV-infected cells, MG132 0 to 10 μM, p<0.01) | change in p21^cip1 abundance (in words) ([1]; HCMV-infected cells, MG132 2.5 μM to 10 μM, compared with mock-infected cells) | increase in p21^cip1 abundance relative to DMSO solvent control or cells in the absence of any chemical ([2]; MG132 10 μM, mock-infected density-arrested LU cells, densitometry of Western blot (FIGS. 5 and 6)) [fold] | slope of the concentration effect on p21^cip1 abundance (linear regression analysis) ([2]; mock-infected cells, MG132 0 to 10 μM, p<0.01) | change in p21^cip1 abundance (in words) ([2]; mock-infected density-arrested LU cells, MG132 0 to 10 μM) |
| --- | --- | --- | --- | --- | --- | --- | --- |
| CC(C)CC(C=O)NC(=O)C(CC(C)C)NC(=O)OCc1ccccc1 (stereo not drawn) [Z-Leu-Leu-H] | about 72% | protected p21^cip1 in a concentration-dependent manner | – | – | – | – | – |
| CC(C)C[C@@H](C=O)NC(=O)[C@H](CC(C)C)NC(=O)[C@H](CC(C)C)NC(=O)OCc1ccccc1 [MG132] (Cbz-Leu-Leu-Leu-aldehyde) | – | – | 0.19 | smaller increases in p21^cip1 abundance | 3.6 | 0.33 | concentration-dependent increase in the abundance of p21^cip1 |
